From PubChem BioAssay (NCI)
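These data come from cells grown in 96-well plates and exposed to compound for 48 hours at five concentrations. TGI is the concentration that stops growth completely.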

Key:
Test in all cases: DTP human tumour cell line panel, 48 h
786-0 renal = tested on: 786-0 renal
A498 renal = tested on: A498 renal
A549 NSCLC = tested on: A549 NSCLC
ACHN renal = tested on: ACHN renal
BT-549 breast = tested on: BT-549 breast
CAKI-1 renal = tested on: CAKI-1 renal
CCRF-CEM leukemia = tested on: CCRF-CEM leukemia
COLO 205 colon = tested on: COLO 205 colon
DU-145 prostate = tested on: DU-145 prostate
EKVX NSCLC = tested on: EKVX NSCLC
HCT-116 colon = tested on: HCT-116 colon
HCT-15 colon = tested on: HCT-15 colon
HL-60(TB) leukemia = tested on: HL-60(TB) leukemia
HOP-62 NSCLC = tested on: HOP-62 NSCLC
HOP-92 NSCLC = tested on: HOP-92 NSCLC
HS 578T breast = tested on: HS 578T breast
HT29 colon = tested on: HT29 colon
IGROV1 ovarian = tested on: IGROV1 ovarian
K-562 leukemia = tested on: K-562 leukemia
KM12 colon = tested on: KM12 colon
LOX IMVI melanoma = tested on: LOX IMVI melanoma
M14 melanoma = tested on: M14 melanoma
MALME-3M melanoma = tested on: MALME-3M melanoma
MDA-MB-231 breast = tested on: MDA-MB-231 breast
MDA-MB-435 = tested on: MDA-MB-435
MDA-N = tested on: MDA-N
MOLT-4 leukemia = tested on: MOLT-4 leukemia
NCI-H226 lung = tested on: NCI-H226 lung
NCI-H23 lung = tested on: NCI-H23 lung
NCI-H460 lung = tested on: NCI-H460 lung
NCI-H522 lung = tested on: NCI-H522 lung
NCI/ADR-RES ovarian = tested on: NCI/ADR-RES ovarian
OVCAR-3 ovarian = tested on: OVCAR-3 ovarian
OVCAR-4 ovarian = tested on: OVCAR-4 ovarian
OVCAR-5 ovarian = tested on: OVCAR-5 ovarian
OVCAR-8 ovarian = tested on: OVCAR-8 ovarian
PC-3 prostate = tested on: PC-3 prostate
RPMI-8226 leukemia = tested on: RPMI-8226 leukemia
RXF 393 renal = tested on: RXF 393 renal
SF-268 CNS = tested on: SF-268 CNS
SF-295 CNS = tested on: SF-295 CNS
SF-539 CNS = tested on: SF-539 CNS
SK-MEL-2 melanoma = tested on: SK-MEL-2 melanoma
SK-MEL-28 melanoma = tested on: SK-MEL-28 melanoma
SK-MEL-5 melanoma = tested on: SK-MEL-5 melanoma
SK-OV-3 ovarian = tested on: SK-OV-3 ovarian
SN12C renal = tested on: SN12C renal
SNB-19 CNS = tested on: SNB-19 CNS
SNB-75 CNS = tested on: SNB-75 CNS
SW-620 colon = tested on: SW-620 colon
T-47D breast = tested on: T-47D breast
TK-10 renal = tested on: TK-10 renal
U251 CNS = tested on: U251 CNS
UACC-257 melanoma = tested on: UACC-257 melanoma
UACC-62 melanoma = tested on: UACC-62 melanoma
UO-31 renal = tested on: UO-31 renal

Q: With `CC1(C)C=CC(=O)C(O)C(C)(C)C1=O` (stereo unspecified) as the molecule, how does the TGI (786-0 renal) read?
A: > 100 µM

Q: What about the TGI (A498 renal) of the same molecule?
A: > 100 µM

Q: What about the TGI (A549 NSCLC) of the same molecule?
A: > 100 µM

Q: And the TGI (ACHN renal)?
A: > 100 µM

Q: What about the TGI (BT-549 breast) of the same molecule?
A: > 100 µM

Q: And the TGI (CAKI-1 renal)?
A: > 100 µM

Q: And the TGI (CCRF-CEM leukemia)?
A: 3.63 µM

Q: What about the TGI (COLO 205 colon) of the same molecule?
A: > 100 µM

Q: And the TGI (DU-145 prostate)?
A: > 100 µM

Q: And the TGI (EKVX NSCLC)?
A: > 100 µM

Q: What about the TGI (HCT-116 colon) of the same molecule?
A: > 100 µM

Q: And the TGI (HCT-15 colon)?
A: > 100 µM

Q: What about the TGI (HL-60(TB) leukemia) of the same molecule?
A: > 100 µM

Q: And the TGI (HOP-62 NSCLC)?
A: > 100 µM

Q: And the TGI (HOP-92 NSCLC)?
A: > 100 µM

Q: What about the TGI (HS 578T breast) of the same molecule?
A: > 100 µM

Q: And the TGI (HT29 colon)?
A: > 100 µM

Q: And the TGI (IGROV1 ovarian)?
A: > 100 µM

Q: What about the TGI (K-562 leukemia) of the same molecule?
A: > 100 µM

Q: What about the TGI (KM12 colon) of the same molecule?
A: > 100 µM

Q: And the TGI (LOX IMVI melanoma)?
A: > 100 µM

Q: And the TGI (M14 melanoma)?
A: > 100 µM

Q: And the TGI (MALME-3M melanoma)?
A: > 100 µM

Q: What about the TGI (MDA-MB-231 breast) of the same molecule?
A: > 100 µM

Q: And the TGI (MDA-MB-435)?
A: > 100 µM

Q: What about the TGI (MDA-N) of the same molecule?
A: > 100 µM

Q: And the TGI (MOLT-4 leukemia)?
A: 69.7 µM

Q: And the TGI (NCI-H226 lung)?
A: > 100 µM

Q: What about the TGI (NCI-H23 lung) of the same molecule?
A: > 100 µM

Q: What about the TGI (NCI-H460 lung) of the same molecule?
A: > 100 µM

Q: What about the TGI (NCI-H522 lung) of the same molecule?
A: 89.4 µM

Q: What about the TGI (NCI/ADR-RES ovarian) of the same molecule?
A: > 100 µM

Q: And the TGI (OVCAR-3 ovarian)?
A: 79.6 µM

Q: What about the TGI (OVCAR-4 ovarian) of the same molecule?
A: > 100 µM

Q: What about the TGI (OVCAR-5 ovarian) of the same molecule?
A: > 100 µM

Q: What about the TGI (OVCAR-8 ovarian) of the same molecule?
A: > 100 µM

Q: What about the TGI (PC-3 prostate) of the same molecule?
A: > 100 µM

Q: What about the TGI (RPMI-8226 leukemia) of the same molecule?
A: > 100 µM

Q: And the TGI (RXF 393 renal)?
A: > 100 µM

Q: What about the TGI (SF-268 CNS) of the same molecule?
A: > 100 µM

Q: What about the TGI (SF-295 CNS) of the same molecule?
A: > 100 µM

Q: And the TGI (SF-539 CNS)?
A: > 100 µM

Q: And the TGI (SK-MEL-2 melanoma)?
A: > 100 µM

Q: What about the TGI (SK-MEL-28 melanoma) of the same molecule?
A: > 100 µM

Q: What about the TGI (SK-MEL-5 melanoma) of the same molecule?
A: > 100 µM

Q: What about the TGI (SK-OV-3 ovarian) of the same molecule?
A: > 100 µM

Q: What about the TGI (SN12C renal) of the same molecule?
A: > 100 µM

Q: And the TGI (SNB-19 CNS)?
A: > 100 µM

Q: And the TGI (SNB-75 CNS)?
A: > 100 µM

Q: And the TGI (SW-620 colon)?
A: > 100 µM

Q: What about the TGI (T-47D breast) of the same molecule?
A: > 100 µM

Q: What about the TGI (TK-10 renal) of the same molecule?
A: > 100 µM

Q: What about the TGI (U251 CNS) of the same molecule?
A: > 100 µM

Q: What about the TGI (UACC-257 melanoma) of the same molecule?
A: > 100 µM

Q: What about the TGI (UACC-62 melanoma) of the same molecule?
A: > 100 µM

Q: And the TGI (UO-31 renal)?
A: > 100 µM
